Data published in the supplement of paper PMC10307832.

Tests used:
Assay in all cases: relative viability (nuclei count vs DMSO), 5 days (fraction); higher = more cells survive
[1] = compound: CC(C)N(CCCNC(=O)Nc1ccc(C(C)(C)C)cc1)C[C@H]1O[C@@H](n2ccc3c(N)ncnc32)[C@H](O)[C@@H]1O + CCNC(=O)c1noc(-c2cc(C(C)C)c(O)cc2O)c1-c1ccc(CN2CCOCC2)cc1 [Luminespib] (partner 0.01 µM)
How it was run: (§1)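 Relative viability divides the nuclei count in treated wells by that in vehicle wells. Lung cancer cell lines were seeded in 1536-well plates, dosed by pin tool the next day, and fixed and stained after 5 days in one step with final 0.05% Triton X-100, 1% formaldehyde and 1 ug/ml Hoechst. Dosing was a single drug or a fixed anchor-drug dose plus five library-drug doses (not always all listed) in √10 steps, and values are medians of duplicate plates imaged at 4×.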

[2] = compound: CC(C)N(CCCNC(=O)Nc1ccc(C(C)(C)C)cc1)C[C@H]1O[C@@H](n2ccc3c(N)ncnc32)[C@H](O)[C@@H]1O + CS(=O)(=O)CCNCc1ccc(-c2ccc3ncnc(Nc4ccc(OCc5cccc(F)c5)c(Cl)c4)c3c2)o1 [Lapatinib] (partner 2 µM)
How it was run: as §1

[3] = compound: CC(C)N(CCCNC(=O)Nc1ccc(C(C)(C)C)cc1)C[C@H]1O[C@@H](n2ccc3c(N)ncnc32)[C@H](O)[C@@H]1O + NC(=O)Nc1cc(-c2cccc(F)c2)sc1C(=O)N[C@H]1CCCNC1 [AZD7762] (partner 0.2 µM)
How it was run: as §1

[4] = compound: CC(C)=CC[C@@H](O)C1=CC(=O)c2c(O)ccc(O)c2C1=O [Shikonin] + COc1cccc2cc(-c3nc([C@H]4CC[C@H](C(=O)O)CC4)n4ncnc(N)c34)[nH]c12 [OSI-027] (partner 0.5 µM)
How it was run: as §1

Cell Line	relative viability ([1]; first compound 0.08 µM)	relative viability ([1]; first compound 0.253 µM)	relative viability ([1]; first compound 0.8 µM)	relative viability ([1]; first compound 2.53 µM)	relative viability ([1]; first compound 8 µM)	relative viability ([2]; first compound 0.08 µM)	relative viability ([2]; first compound 0.253 µM)	relative viability ([2]; first compound 0.8 µM)	relative viability ([2]; first compound 2.53 µM)	relative viability ([2]; first compound 8 µM)	relative viability ([3]; first compound 0.08 µM)	relative viability ([3]; first compound 0.253 µM)	relative viability ([3]; first compound 0.8 µM)	relative viability ([3]; first compound 2.53 µM)	relative viability ([3]; first compound 8 µM)	relative viability ([4]; first compound 0.01 µM)	relative viability ([4]; first compound 0.1 µM)	relative viability ([4]; first compound 0.3162 µM)	relative viability ([4]; first compound 1 µM)
NCI-H727	0.372	0.453	0.445	0.232	0.471	0.922	0.821	0.804	0.973	0.686	0.634	0.624	0.649	0.328	0.694	0.683	0.668	0.57	0.525
NCI-H838	0.366	0.273	0.307	0.331	0.286	0.869	0.521	0.953	0.938	0.916	0.864	0.909	0.912	0.806	0.95	0.387	0.345	0.405	0.459
NCI-H1355	0.763	0.614	0.679	0.609	0.665	0.94	0.975	–	1	0.857	0.703	0.68	0.642	0.75	0.695	0.457	0.405	0.37	0.483
NCI-H1395	0.632	0.734	0.571	0.884	0.798	1.15	1.02	–	0.94	0.904	0.424	0.412	0.42	0.421	0.38	0.582	0.681	0.661	0.732
NCI-H1437	1.07	1.02	1.14	1.15	1.05	0.703	0.77	0.773	0.722	0.715	1.13	1.06	1.15	1.07	1.14	0.936	0.833	0.849	0.952
NCI-H1651	0.805	0.903	0.785	0.765	0.722	0.724	0.727	0.586	0.779	0.93	0.545	0.562	0.468	0.46	0.457	0.744	0.469	0.708	0.686
NCI-H1666	0.963	0.987	1.07	0.999	0.941	0.618	0.613	0.427	0.568	0.486	0.924	0.898	0.758	0.844	0.773	0.936	0.833	0.862	0.966
NCI-H1734	0.218	0.19	0.209	0.188	0.23	0.987	1.06	0.976	1.13	0.995	0.546	0.441	0.634	0.565	0.466	0.661	0.713	0.624	0.53
NCI-H1755	0.553	0.53	0.367	0.43	0.349	1.02	1.06	0.841	0.979	0.944	0.473	0.401	0.44	0.444	0.426	0.765	0.736	0.827	0.687
NCI-H1792	0.47	–	0.394	0.446	0.439	0.878	0.851	0.839	0.831	0.902	0.68	–	0.46	0.569	0.601	0.7	0.63	0.853	0.805
NCI-H1793	0.18	–	0.292	0.171	0.203	0.607	–	0.554	0.599	0.636	0.614	–	0.386	0.437	0.426	0.223	0.271	0.291	0.301
NCI-H1915	0.757	0.819	0.676	0.789	0.77	1.02	0.981	0.783	0.925	0.87	0.674	0.726	0.607	0.668	0.56	0.615	0.737	0.634	0.595
NCI-H1944	0.716	0.683	0.819	0.709	0.766	0.764	0.88	0.652	0.847	0.795	0.678	0.415	0.537	0.559	0.575	0.397	0.462	0.423	0.459
NCI-H1975	0.214	0.154	–	0.213	0.192	0.752	0.805	0.473	0.752	0.656	0.701	0.686	–	0.642	0.53	0.728	0.763	0.7	0.68
NCI-H1993	0.707	–	–	0.927	0.84	0.857	0.734	0.769	0.819	0.775	0.659	–	0.941	0.777	0.673	0.558	0.522	0.561	0.582
NCI-H2085	0.434	0.506	0.441	0.414	0.389	0.782	0.681	0.747	0.858	0.798	0.979	0.766	0.921	1.08	1	0.832	0.973	0.73	0.773
NCI-H2087	0.211	0.198	0.276	0.16	0.151	1.03	1.16	0.825	1.01	0.996	1.31	1.26	1.51	1.38	1.29	0.602	0.616	0.66	0.502
